System: brain / choroid plexus uptake
Assay: PET imaging in cynomolgus monkey
Format: in vivo

Cl.O=C(Cc1ccc(OC2CCNCC2)cc1OCCF)N1CCC(N2C(=O)CCc3ccccc32)CC1 [Compound 1, 1-(1-(2-(2-(2-fluoroethoxy)-4-(piperidin-4-yloxy)phenyl)acetyl)piperidin-4-yl)-3,4-dihydroquinolin-2(1H)-one]
effect of blocking on [18F]1 uptake (5 mg/kg of 1 given 30 min prior to [18F]1): increase of overall brain activity, primarily in the region of the choroid plexus | effect of chase on [18F]1 choroid plexus uptake (5 mg/kg of 1 given 45 min after [18F]1): uptake within the choroid plexus was completely removed

Source: publication PMC3955700 (Bioorganic & medicinal chemistry letters, 2013)
